Experimental findings from paper PMC5218480 (PLoS ONE, 2017) are described below.

This assay concerns MV-4-11 cells. Briefly: Gene expression microarray analysis (Affymetrix PrimeView) and GSEA. The format is cell-based, human. Also on record: RFU PODN (11730768_x_at) / Fold change /veh PODN (11730768_x_at) / RFU LINC00158 (11744669_a_at) / Fold change /veh LINC00158 (11744669_a_at) / RFU DUSP10 (11751237_a_at) / Fold change /veh DUSP10 (11751237_a_at) / RFU ID3 (11757404_x_at) / Fold change /veh ID3 (11757404_x_at) / RFU PLEKHG5 (11737974_s_at) / Fold change /veh PLEKHG5 (11737974_s_at) / RFU LRRC4B (11730491_at) / Fold change /veh LRRC4B (11730491_at) / RFU GIMAP4 (11747438_a_at) / Fold change /veh GIMAP4 (11747438_a_at) / RFU KRT8 (11758183_x_at) / Fold change /veh KRT8 (11758183_x_at) / RFU CNN1 (11734310_a_at) / Fold change /veh CNN1 (11734310_a_at) / RFU VPS37D (11726825_at) / Fold change /veh VPS37D (11726825_at) / RFU C10orf10 (11716522_x_at) / Fold change /veh C10orf10 (11716522_x_at) / RFU KIR2DL2 /// KIR2DL4 /// KIR2DL5A /// KIR2DL5B /// KIR2DS1 /// KIR2DS2 /// KIR2DS3 /// KIR2DS4 /// KIR3DL3 /// KIR3DL3 /// KIR3DS1 (11738374_at) / Fold change /veh KIR2DL2 /// KIR2DL4 /// KIR2DL5A /// KIR2DL5B /// KIR2DS1 /// KIR2DS2 /// KIR2DS3 /// KIR2DS4 /// KIR3DL3 /// KIR3DL3 /// KIR3DS1 (11738374_at) / RFU C1QL1 (11718748_at) / Fold change /veh C1QL1 (11718748_at) / RFU TMPRSS4 (11747572_a_at) / Fold change /veh TMPRSS4 (11747572_a_at) / RFU HAMP (11756126_x_at) / Fold change /veh HAMP (11756126_x_at) / RFU RNFT2 (11725882_a_at) / Fold change /veh RNFT2 (11725882_a_at) / RFU NR4A2 (11747474_a_at) / Fold change /veh NR4A2 (11747474_a_at) / RFU ABCC12 (11746883_a_at) / Fold change /veh ABCC12 (11746883_a_at) / RFU TMEM136 (11760407_x_at) / Fold change /veh TMEM136 (11760407_x_at) / RFU CLDN22 /// WWC2 (11732394_at) / Fold change /veh CLDN22 /// WWC2 (11732394_at) / RFU HLA-DPB1 (11760878_x_at) / Fold change /veh HLA-DPB1 (11760878_x_at) / RFU SPINT1 (11716480_a_at) / Fold change /veh SPINT1 (11716480_a_at) / RFU GAP43 (11754022_s_at) / Fold change /veh GAP43 (11754022_s_at) / RFU A4GNT (11735810_at) / Fold change /veh A4GNT (11735810_at) / RFU PRB3 (11715151_x_at) / Fold change /veh PRB3 (11715151_x_at) / RFU TUBB4B (11761932_at) / Fold change /veh TUBB4B (11761932_at) / RFU CAPN14 (11732068_a_at) / Fold change /veh CAPN14 (11732068_a_at) / RFU TMCC2 (11721928_a_at) / Fold change /veh TMCC2 (11721928_a_at) / RFU IRGQ (11745062_a_at) / Fold change /veh IRGQ (11745062_a_at) / RFU FAM174B (11720279_a_at) / Fold change /veh FAM174B (11720279_a_at) / RFU TMPRSS4 (11748680_a_at) / Fold change /veh TMPRSS4 (11748680_a_at) / RFU FAM212B (11763350_a_at) / Fold change /veh FAM212B (11763350_a_at) / RFU PLEKHG5 (11743358_a_at) / Fold change /veh PLEKHG5 (11743358_a_at) / RFU ZSCAN30 (11745921_a_at) / Fold change /veh ZSCAN30 (11745921_a_at) / RFU CMKLR1 (11741424_a_at) / Fold change /veh CMKLR1 (11741424_a_at) / RFU LOC101060620 /// MAPK8IP1 (11723275_at) / Fold change /veh LOC101060620 /// MAPK8IP1 (11723275_at) / RFU SPTSSB (11747773_x_at) / Fold change /veh SPTSSB (11747773_x_at) / RFU PRSS12 (11739890_at) / Fold change /veh PRSS12 (11739890_at) / RFU BIN1 (11741810_x_at) / Fold change /veh BIN1 (11741810_x_at) / RFU WNT11 (11732464_a_at) / Fold change /veh WNT11 (11732464_a_at) / RFU C10orf10 (11716521_a_at) / Fold change /veh C10orf10 (11716521_a_at) / RFU C5orf56 (11738089_at) / Fold change /veh C5orf56 (11738089_at) / RFU CYB561 (11721691_x_at) / Fold change /veh CYB561 (11721691_x_at) / RFU ANKRD19P (11752326_a_at) / Fold change /veh ANKRD19P (11752326_a_at) / RFU OR2T12 /// OR2T33 /// OR2T8 (11738714_s_at) / Fold change /veh OR2T12 /// OR2T33 /// OR2T8 (11738714_s_at) / RFU VCAN (11748164_a_at) / Fold change /veh VCAN (11748164_a_at) / RFU JSRP1 (11732532_at) / Fold change /veh JSRP1 (11732532_at) / RFU KRTAP10-11 (11738290_x_at) / Fold change /veh KRTAP10-11 (11738290_x_at) / RFU MYO3A (11730013_a_at) / Fold change /veh MYO3A (11730013_a_at) / RFU EBF3 (11725865_a_at) / Fold change /veh EBF3 (11725865_a_at) / RFU CAMK2N1 (11719241_x_at) / Fold change /veh CAMK2N1 (11719241_x_at) / RFU C5orf56 (11738088_a_at) / Fold change /veh C5orf56 (11738088_a_at) / RFU OLFML3 (11715873_a_at) / Fold change /veh OLFML3 (11715873_a_at) / RFU LOC100653217 /// NTM (11731650_a_at) / Fold change /veh LOC100653217 /// NTM (11731650_a_at) / RFU MAPK11 (11762145_a_at) / Fold change /veh MAPK11 (11762145_a_at) / RFU FIZ1 (11724087_x_at) / Fold change /veh FIZ1 (11724087_x_at) / RFU OASL (11726364_x_at) / Fold change /veh OASL (11726364_x_at) / RFU SOX15 (11748057_x_at) / Fold change /veh SOX15 (11748057_x_at) / RFU CD79A (11719716_a_at) / Fold change /veh CD79A (11719716_a_at) / RFU HIST1H1D (11736915_at) / Fold change /veh HIST1H1D (11736915_at) / RFU CASKIN2 (11723855_a_at) / Fold change /veh CASKIN2 (11723855_a_at) / RFU LOC730098 (11760151_x_at) / Fold change /veh LOC730098 (11760151_x_at) / RFU OR4N2 (11742367_at) / Fold change /veh OR4N2 (11742367_at) / RFU PRRT2 (11749266_a_at) / Fold change /veh PRRT2 (11749266_a_at) / RFU SNX32 (11753110_a_at) / Fold change /veh SNX32 (11753110_a_at) / RFU CDHR5 (11726645_a_at) / Fold change /veh CDHR5 (11726645_a_at) / RFU RCAN1 (11760418_a_at) / Fold change /veh RCAN1 (11760418_a_at) / RFU FAM167A (11723789_a_at) / Fold change /veh FAM167A (11723789_a_at) / RFU FAM26E (11764081_at) / Fold change /veh FAM26E (11764081_at) / RFU ISYNA1 (11749810_s_at) / Fold change /veh ISYNA1 (11749810_s_at) / RFU ACY1 (11761880_at) / Fold change /veh ACY1 (11761880_at) / RFU 11764098_at / Fold change /veh 11764098_at / RFU SAMD14 (11745864_x_at) / Fold change /veh SAMD14 (11745864_x_at) / RFU NPB (11741838_a_at) / Fold change /veh NPB (11741838_a_at) / RFU TMPRSS6 (11731388_a_at) / Fold change /veh TMPRSS6 (11731388_a_at) / RFU KRTAP10-2 (11738614_at) / Fold change /veh KRTAP10-2 (11738614_at) / RFU ARHGAP8 /// PRR5-ARHGAP8 (11727945_x_at) / Fold change /veh ARHGAP8 /// PRR5-ARHGAP8 (11727945_x_at) / RFU KRTAP5-7 /// NADSYN1 (11734609_at) / Fold change /veh KRTAP5-7 /// NADSYN1 (11734609_at) / RFU RASL12 (11751679_a_at) / Fold change /veh RASL12 (11751679_a_at) / RFU CDKN2B (11736163_a_at) / Fold change /veh CDKN2B (11736163_a_at) / RFU PRF1 (11729649_at) / Fold change /veh PRF1 (11729649_at) / RFU, ZNF638 /// ZNF638-IT1 / Fold change vs veh, ZNF638 /// ZNF638-IT1 / RFU, PANK3 / Fold change vs veh, PANK3 / RFU, SH3YL1 / Fold change vs veh, SH3YL1 / RFU, ZEB2 / Fold change vs veh, ZEB2 / RFU, NRIP1 / Fold change vs veh, NRIP1 / RFU, PTTG1IP / Fold change vs veh, PTTG1IP / RFU, CAPN2 / Fold change vs veh, CAPN2 / RFU, MED14 / Fold change vs veh, MED14 / RFU, SNORA58 / Fold change vs veh, SNORA58 / RFU, C1orf63 / Fold change vs veh, C1orf63 / RFU, LRRFIP1 / Fold change vs veh, LRRFIP1 / RFU, NDUFAF7 / Fold change vs veh, NDUFAF7 / RFU, SLC12A2 / Fold change vs veh, SLC12A2 / RFU, IBTK / Fold change vs veh, IBTK / RFU, ESF1 / Fold change vs veh, ESF1 / Fold change vs veh, TMEM50B / RFU, TAOK1 / Fold change vs veh, TAOK1 / RFU, ACBD3 / Fold change vs veh, ACBD3 / RFU, TMA16 / Fold change vs veh, TMA16 / RFU, RWDD3 / Fold change vs veh, RWDD3 / RFU, BCAT1 / Fold change vs veh, BCAT1 / RFU, EDEM3 / Fold change vs veh, EDEM3 / RFU, TMEM33 / Fold change vs veh, TMEM33 / RFU, WDR75 / Fold change vs veh, WDR75 / RFU, AHCTF1 / Fold change vs veh, AHCTF1 / RFU, TFRC / Fold change vs veh, TFRC / RFU, ZDHHC17 / Fold change vs veh, ZDHHC17 / RFU, NOM1 / Fold change vs veh, NOM1 / RFU, ARL8B / Fold change vs veh, ARL8B / RFU, ZBTB11 / Fold change vs veh, ZBTB11 / RFU, TAMM41 / Fold change vs veh, TAMM41 / RFU, KIAA1704 /// LOC100996395 / Fold change vs veh, KIAA1704 /// LOC100996395 / RFU, ING1 / Fold change vs veh, ING1 / RFU, TRMT61B / Fold change vs veh, TRMT61B / RFU, FUBP3 / Fold change vs veh, FUBP3 / RFU, TP53 / Fold change vs veh, TP53 / RFU, TNKS2 / Fold change vs veh, TNKS2 / RFU, ZFP14 / Fold change vs veh, ZFP14 / RFU, ACTR2 / Fold change vs veh, ACTR2 / RFU, PPP3R1 / Fold change vs veh, PPP3R1 / RFU, PIK3R1 / Fold change vs veh, PIK3R1 / RFU, HNRNPA1 / Fold change vs veh, HNRNPA1 / RFU, RNF170 / Fold change vs veh, RNF170 / RFU, ZNF28 / Fold change vs veh, ZNF28 / RFU, RNGTT / Fold change vs veh, RNGTT / RFU, OGT / Fold change vs veh, OGT / RFU, BRD1 / Fold change vs veh, BRD1 / RFU, MARS / Fold change vs veh, MARS / RFU, ZNF655 / Fold change vs veh, ZNF655 / RFU, FAHD1 / Fold change vs veh, FAHD1 / RFU, BDP1 / Fold change vs veh, BDP1 / RFU, LRRCC1 / Fold change vs veh, LRRCC1 / RFU, ARID1A / Fold change vs veh, ARID1A / RFU, ZNF146 / Fold change vs veh, ZNF146 / RFU, ZNF330 / Fold change vs veh, ZNF330 / RFU, GPN3 / Fold change vs veh, GPN3 / RFU, C9orf123 / Fold change vs veh, C9orf123 / RFU, N4BP2L2 / Fold change vs veh, N4BP2L2 / RFU, ARFIP1 / Fold change vs veh, ARFIP1 / RFU, FAM179B / Fold change vs veh, FAM179B / RFU, BCL10 / Fold change vs veh, BCL10 / RFU, UHRF1BP1L / Fold change vs veh, UHRF1BP1L / RFU, BET1 / Fold change vs veh, BET1 / RFU, CNOT2 / Fold change vs veh, CNOT2 / RFU, ZNF268 / Fold change vs veh, ZNF268 / Fold change vs veh, ZNF507 / RFU, DGCR2 / Fold change vs veh, DGCR2 / RFU, WDSUB1 / Fold change vs veh, WDSUB1 / Fold change vs veh, HSP90B1 /// MIR3652 / RFU, ADSS / Fold change vs veh, ADSS / RFU, GK / Fold change vs veh, GK / RFU, ZNF148 / Fold change vs veh, ZNF148 / RFU, TAF9 / Fold change vs veh, TAF9 / RFU, SLC1A5 / Fold change vs veh, SLC1A5 / RFU, SLMO2 / Fold change vs veh, SLMO2 / RFU, ABCC4 / Fold change vs veh, ABCC4 / RFU, LOC101060439 /// RAP1B / Fold change vs veh, LOC101060439 /// RAP1B / RFU, RFX7 / Fold change vs veh, RFX7 / RFU, GTPBP10 / Fold change vs veh, GTPBP10 / RFU, CNEP1R1 / Fold change vs veh, CNEP1R1 / RFU, BIVM-ERCC5 /// ERCC5 / Fold change vs veh, BIVM-ERCC5 /// ERCC5 / RFU, ILF3 / Fold change vs veh, ILF3 / RFU 11762660_at / Fold change /veh 11762660_at / RFU VCAN (11757783_s_at) / Fold change /veh VCAN (11757783_s_at) / RFU DDX43 (11728927_at) / Fold change /veh DDX43 (11728927_at) / RFU KRT8 (11758188_x_at) / Fold change /veh KRT8 (11758188_x_at) / RFU NKD1 (11759106_at) / Fold change /veh NKD1 (11759106_at) / RFU SRD5A1 (11742802_a_at) / Fold change /veh SRD5A1 (11742802_a_at) / RFU TPSAB1 /// TPSB2 (11721975_s_at) / Fold change /veh TPSAB1 /// TPSB2 (11721975_s_at) / RFU GSTM3 (11746129_a_at) / Fold change /veh GSTM3 (11746129_a_at) / RFU IL23R (11737362_x_at) / Fold change /veh IL23R (11737362_x_at) / RFU TMEM51 (11727254_a_at) / Fold change /veh TMEM51 (11727254_a_at) / RFU PIWIL2 (11732686_x_at) / Fold change /veh PIWIL2 (11732686_x_at) / RFU ORM1 (11744905_x_at) / Fold change /veh ORM1 (11744905_x_at) / RFU CCDC152 (11743942_at) / Fold change /veh CCDC152 (11743942_at) / RFU ECM1 (11717891_a_at) / Fold change /veh ECM1 (11717891_a_at) / RFU IL23R (11748794_a_at) / Fold change /veh IL23R (11748794_a_at) / RFU TNFAIP8L3 (11732012_x_at) / Fold change /veh TNFAIP8L3 (11732012_x_at) / RFU MBOAT4 (11741988_at) / Fold change /veh MBOAT4 (11741988_at) / RFU 11764193_at / Fold change /veh 11764193_at / RFU TMEM53 (11763286_at) / Fold change /veh TMEM53 (11763286_at) / RFU MAGEB2 (11727129_at) / Fold change /veh MAGEB2 (11727129_at) / RFU TMEM200A (11744735_a_at) / Fold change /veh TMEM200A (11744735_a_at) / RFU CCDC152 (11751479_a_at) / Fold change /veh CCDC152 (11751479_a_at) / RFU FAM211A (11726209_a_at) / Fold change /veh FAM211A (11726209_a_at) / RFU RGS16 (11746705_a_at) / Fold change /veh RGS16 (11746705_a_at) / RFU VCAN (11755009_s_at) / Fold change /veh VCAN (11755009_s_at) / RFU RHOB (11743442_s_at) / Fold change /veh RHOB (11743442_s_at) / RFU RGS16 (11720943_a_at) / Fold change /veh RGS16 (11720943_a_at) / RFU RGS16 (11720944_at) / Fold change /veh RGS16 (11720944_at) / RFU, VPS4B / Fold change vs veh, VPS4B / RFU, CREB1 / Fold change vs veh, CREB1 / RFU, DNAJC13 / Fold change vs veh, DNAJC13 / RFU, GNAQ / Fold change vs veh, GNAQ / RFU, CDK5R1 / Fold change vs veh, CDK5R1 / RFU, ZRANB3 / Fold change vs veh, ZRANB3 / RFU, CUL4A / Fold change vs veh, CUL4A / RFU, CCNY / Fold change vs veh, CCNY / RFU, UFL1 / Fold change vs veh, UFL1 / RFU, COG3 / Fold change vs veh, COG3 / RFU, DIAPH2 / Fold change vs veh, DIAPH2 / RFU, SKA2 / Fold change vs veh, SKA2 / RFU, AFF3 / Fold change vs veh, AFF3 / RFU, LMF1 / Fold change vs veh, LMF1 / RFU, IPO11 / Fold change vs veh, IPO11 / RFU, DFFB / Fold change vs veh, DFFB / RFU, FOXP1 / Fold change vs veh, FOXP1 / RFU, CARD8 / Fold change vs veh, CARD8 / RFU, STRN3 / Fold change vs veh, STRN3 / RFU, ADK / Fold change vs veh, ADK / RFU, RASSF2 / Fold change vs veh, RASSF2 / RFU, WIPF1 / Fold change vs veh, WIPF1 / RFU, LARP1B / Fold change vs veh, LARP1B / RFU, RASA1 / Fold change vs veh, RASA1 / RFU, RB1 / Fold change vs veh, RB1 / RFU, PPFIA1 / Fold change vs veh, PPFIA1 / RFU, MAT2A / Fold change vs veh, MAT2A / RFU, CCT5 / Fold change vs veh, CCT5 / RFU, WDR92 / Fold change vs veh, WDR92 / RFU, CUX1 / Fold change vs veh, CUX1 / RFU, TTC7A / Fold change vs veh, TTC7A / RFU, TMEM135 / Fold change vs veh, TMEM135 / RFU, DEPTOR / Fold change vs veh, DEPTOR / RFU, CPM / Fold change vs veh, CPM / RFU, DNAJB6 / Fold change vs veh, DNAJB6 / RFU, CACNA2D3 / Fold change vs veh, CACNA2D3 / RFU, DTX4 / Fold change vs veh, DTX4 / RFU, TFCP2 / Fold change vs veh, TFCP2 / RFU, GMCL1 /// GMCL1P1 / Fold change vs veh, GMCL1 /// GMCL1P1 / RFU, AEBP2 / Fold change vs veh, AEBP2 / RFU, SNHG1 /// SNORD22 /// SNORD25 /// SNORD26 /// SNORD27 /// SNORD28 /// SNORD29 /// SNORD31 / Fold change vs veh, SNHG1 /// SNORD22 /// SNORD25 /// SNORD26 /// SNORD27 /// SNORD28 /// SNORD29 /// SNORD31 / Fold change (Aza/veh), C12orf56 (ProbeSet 11735607_a_at) / Fold change (ACY-1035/veh), C12orf56 (ProbeSet 11735607_a_at) / Fold change (Aza/veh), FGFR1OP (ProbeSet 11751329_s_at) / Fold change (ACY-1035/veh), FGFR1OP (ProbeSet 11751329_s_at) / Fold change (Aza/veh), VPS36 (ProbeSet 11739960_a_at) / Fold change (ACY-1035/veh), VPS36 (ProbeSet 11739960_a_at) / RFU SYPL1 (11715823_x_at) / Fold change /veh SYPL1 (11715823_x_at) / RFU IGFBP7 (11715501_s_at) / Fold change /veh IGFBP7 (11715501_s_at) / RFU REEP3 (11722064_at) / Fold change /veh REEP3 (11722064_at) / RFU IGLL1 (11728026_x_at) / Fold change /veh IGLL1 (11728026_x_at): dose or concentration left out as unconfirmed. The conditions noted are these: MV-4-11 cells, 48 hours.

As to `Nc1ncn([C@@H]2O[C@H](CO)[C@@H](O)[C@H]2O)c(=O)n1` [azacitidine], the “Fold change /veh GAP43 (11754022_s_at)” value came out at 0.84.
